US20190224222A1, “METHOD OF INHIBITING QUORUM SENSING USING D-GALACTOSE” (Seoul National University R&DB Foundation, priority 2014, published 2019)

Tests used:
[1] = system: S. mutans (Sm) biofilm; assay: S. mutans biofilm formation, crystal violet staining; assay type: cell-based, Streptococcus mutans (ATCC 25175)
Procedure: (§1) 2 mL (2×10^7/ml) of the culture broth of a representative cariogenic bacterium S. mutans (Sm) and 2 mL (2×10^7/ml) of the culture broth of one of normal oral flora, S. oxalis (SO) were added to a saliva-coated glass slip (round, 12 mm radius), respectively and cultured with 0 mM or 2 mM of D-galactose to form biofilms. The formed biofilms were stained with crystal violet in the same manner as in Examples 3-6 to test biofilm formation according to the presence of D-galactose. Further, the biofilms were stained with fluorescent materials using the live/dead-BacLight viability kit (Invitrogen, Grand Island, N.Y., USA), followed by analysis. For comparison, 2 μM of the furanone compound was used instead of D-galactose to perform the same test.

[2] = system: T. forsythia (Tf) biofilm; assay: Tf biofilm formation induced by Fn secretory material, transwell, crystal violet; assay type: cell-based; conditions: Fn upper / Tf lower chamber, Fur 2 μM, 48-72 h, Fn/Tf control 0.55, Tf alone 0.17
Procedure: (§2) In order to examine efficacies of quorum sensing inhibitor (QSI) candidates on biofilm formation of periodontopathogenic bacteria which is induced by a secretory material of F. nucleatum (Fn), a test was performed using a transwell system. AI-2 naturally secreted by Fn is contained in the secretory material of Fn. Therefore, in the test using the transwell system, Fn AI-2 was not directly added to bacteria, but Fn was put in an upper chamber and Pg or Tf was put in a lower chamber. Biofilms cultured and formed in the presence or absence of QSI candidates were stained with crystal violet, followed by analysis. These conditions are to evaluate whether Pg or Tf biofilm formation is influenced by not a purified AI-2 but an AI-2-containing secretory material naturally secreted by Fn, and whether QSI candidates such as D-gal is able to inhibit the biofilm formation if the biofilm is then formed.
(§3) More specifically, the transwell system (24-well) has an upper chamber and a lower chamber which are separated from each other by a membrane of 0.4 μm. 500 μl of F. nucelatum (Fn) culture broth (the number of bacteria: 2×10^7 CFU/ml) was cultured in the upper chamber. A glass slip was placed in the lower chamber, and then the same number of P. gingivalis(Pg) or T. forsythia(Tf) was inoculated in 1 ml of medium and cultured for 48-72 hours. The same QSI candidates were added to the upper and lower chambers. As the QSI candidates, 2 mM of sugar (D-rib or D-gal) was used and 2 μM of the furanone compound [(5Z)-4-bromo-5-(bromomethylene)-2(5H)-furanone] was used. In order to examine whether biofilm formation of the bacteria in the lower chamber is influenced by Fn secretory material and QSI candidates, the biofilms formed on the glass slip were stained with crystal violet, and then quantified (see Examples 3 to 5).

[3] = system: P. gingivalis (Pg) biofilm; assay: Pg biofilm formation induced by Fn secretory material, transwell, crystal violet; assay type: cell-based; conditions: Fn upper / Pg lower chamber, Fur 2 μM, 48-72 h, Fn/Pg control 0.57, Pg alone 0.30
Procedure: as §2, §3

[4] = system: F. nucleatum (Fn) biofilm; assay: Fn biofilm formation induced by Fn AI-2, crystal violet staining; assay type: cell-based, F. nucleatum (ATCC 25586); conditions: Fn + Fn AI-2 10% (v/v), 48-72 h, Fn/AI-2 control 1.5, Fn 0.46
Procedure: To test biofilm formation by Fn, a Fn culture broth (2 ml; a negative control group, the number of bacteria: 2×10^7/ml), a mixture of Fn culture broth (2 ml) and F. nucleatum AI-2 (purified from F. nucleatum secretary material of F. nucleatum culture broth using a C18 Sep-Pak reverse-phase column (Waters Co., Milford, Mass.); hereinafter, referred to as ‘Fn AI-2’; 10% (v/v) with respect to the total volume of the mixture with Fn culture broth), or a mixture of Fn culture broth (2 ml) and Fn AI-2 (10% (v/v) with respect to the total volume of the mixture with Fn culture broth) and each of QSI candidates was added to a 24-well plate with a glass slip (round, 12 mm radius), and cultured under anaerobic conditions for 48-72 hours. As the QSI candidates, sugars (D-rib, D-gal, D-Glu, D-Man, or D-ara) were used in an amount of 2 mM, and the furanone compound [(5Z)-4-bromo-5-(bromomethylene)-2(5H)-furanone] was used in an amount of 2 μM.
(§4) Biofilms formed on the cover slips were stained with 10% crystal violet [Tris(4-(dimethylamino)phenyl)methylium chloride] for 10 minutes, washed three times with PBS, and destained with 1 ml of acetone-alcohol (20:80, vol/vol). The optical density at 590 nm of the destaining solution containing crystal violet was measured using a microplate reader (a Wallac Victor3 microtiter, PerkinElmer Life Sciences, Waltham, Mass.). The smaller optical density (OD590) measured at 590 nm represents more inhibition of biofilm formation, that is, higher quorum sensing inhibitory effect of the used QSI candidate.

[5] = system: P. gingivalis (Pg) biofilm; assay: Pg biofilm formation induced by Fn AI-2, crystal violet staining; assay type: cell-based, P. gingivalis (ATCC 33277); conditions: Pg + Fn AI-2 10% (v/v), Fur 2 μM, 48-72 h; Pg/AI-2 control 2.00, Pg 0.66
Procedure: To test biofilm formation by Pg, a test was performed in the same manner as in Example 3. That is, a Pg culture broth (2 ml; negative control group, the number of bacteria: 4×10^8/ml), a mixture of Pg culture broth (2 ml) and Fn AI-2 (10% (v/v) with respect to the total volume of the mixture with Pg culture broth), or a mixture of Pg culture broth (2 ml) and Fn AI-2 (10% (v/v) with respect to the total volume of the mixture with Fn culture broth) and D-gal (2 mM) was added to a 24-well plate with a glass slip (round, 12 mm radius), and cultured under anaerobic conditions for 48˜72 hours. For comparison, 2 μM of the furanone compound [(5Z)-4-bromo-5-(bromomethylene)-2(5H)-furanone] was used instead of D-gal (2 mM) to perform the same test.
as §4

[6] = system: T. forsythia (Tf) biofilm; assay: Tf biofilm formation induced by Fn AI-2, crystal violet staining; assay type: cell-based, T. forsythia (ATCC 43037); conditions: Tf + Fn AI-2 10% (v/v), Fur 2 μM, 48-72 h; Tf/AI-2 control 0.48, Tf 0.32
Procedure: To test biofilm formation by Tf, a test was performed in the same manner as in Example 3. That is, a Tf culture broth (2 ml; a negative control group, the number of bacteria: 2×10^8/ml), a mixture of Tf culture broth (2 ml) and Fn AI-2 (10% (v/v) with respect to the total volume of the mixture with Tf culture broth), or a mixture of Tf culture broth (2 ml) and Fn AI-2 (10% (v/v) with respect to the total volume of the mixture with Tf culture broth) and D-gal (2 mM) was added to a 24-well plate with a glass slip (round, 12 mm radius), and cultured under anaerobic conditions for 48-72 hours. For comparison, 2 mM of D-rib or 2 μM of the furanone compound [(5Z)-4-bromo-5-(bromomethylene)-2(5H)-furanone] was used instead of D-gal to perform the same test.
as §4

[7] = system: S. oxalis (So) biofilm; assay: S. oxalis biofilm formation, crystal violet staining; assay type: cell-based, Streptococcus oxalis (ATCC 9811); conditions: So on saliva-coated glass slip, Fur 2 uM; So control 0.59
Procedure: as §1, with “The formed biofilms were stained with crystal violet in the same manner as in Examples 3-6 to test biofilm formation according to the presence of D-galactose.” left out

[8] = sugar 2 mM, smaller OD = more inhibition of biofilm

## O=C1C=C(Br)/C(=C/Br)O1 [Fur, (5Z)-4-bromo-5-(bromomethylene)-2(5H)-furanone, reference compound]
[1]; Sm on saliva-coated glass slip, Fur 2 μM, Sm control 0.48
  OD590 nm: 0.51
[1]; crystal violet, D-gal 2 mM, furanone compound 2 μM
  inhibitory effect on Sm biofilm formation, in words: hardly exhibited the inhibitory effect
[2]
  OD590: 0.39
[3]
  OD590 nm: 0.30
[4]; Fur 2 μM
  OD590 nm: 0.49
[5]
  OD590 nm: 0.98
[6]
  OD590 nm: 0.35
[7]
  OD590: 0.64

## O=C[C@@H](O)[C@@H](O)[C@H](O)[C@H](O)CO [D-man, D-mannose]
[4]; [8]
  OD590 nm: 1.16

## O=C[C@@H](O)[C@H](O)[C@H](O)CO [D-ara, D-arabinose]
[4]; [8]
  OD590 nm: 1.37

## O=C[C@H](O)[C@@H](O)[C@H](O)[C@H](O)CO [D-glu, D-glucose]
[4]; [8]
  OD590 nm: 1.15
